The NIST ThermoML archive (doi:10.1016/j.jct.2018.12.019)

Assay: xn = mol fraction of the nth substance listed
Conditions: 98 kPa, Liquid; for speed of sound: Frequency=3 MHz, Single path-length method; for mass density: Vibrating tube method

Cn1ccnc1 [1-methylimidazole] + O
Conditions | mass density, 288.15 K [kg/m3] | mass density, 298.15 K [kg/m3] | mass density, 308.15 K [kg/m3] | mass density, 318.15 K [kg/m3] | mass density, 328.15 K [kg/m3] | speed of sound, 288.15 K [m/s] | speed of sound, 298.15 K [m/s] | speed of sound, 308.15 K [m/s] | speed of sound, 318.15 K [m/s] | speed of sound, 328.15 K [m/s]
x1 = 0.0521 | 1011.8 | 1007.6 | 1002.76 | 997.34 | 991.41 | 1581.3 | 1587 | 1588.8 | 1586.8 | 1581.4
x1 = 0.1076 | 1022.54 | 1016.8 | 1010.63 | 1004.04 | 997.06 | 1645.6 | 1636.9 | 1625.7 | 1612.2 | 1596.3
x1 = 0.2035 | 1035.77 | 1028.46 | 1020.89 | 1013.06 | 1004.95 | 1705.3 | 1682.6 | 1658.4 | 1633.1 | 1606.6
x1 = 0.3041 | 1044.45 | 1036.28 | 1027.92 | 1019.36 | 1010.6 | 1731.5 | 1707.2 | 1669.9 | 1638.1 | 1605.7
x1 = 0.4017 | 1048.95 | 1040.34 | 1031.57 | 1022.64 | 1013.55 | 1735.5 | 1701.4 | 1667.7 | 1631.6 | 1596.3
x1 = 0.5053 | 1050.2 | 1041.41 | 1032.48 | 1023.41 | 1014.19 | 1723.2 | 1687.5 | 1651.3 | 1615 | 1578.4
x1 = 0.6052 | 1048.91 | 1040.12 | 1031.21 | 1022.16 | 1012.98 | 1702.4 | 1666.6 | 1630.2 | 1593.7 | 1557
x1 = 0.7018 | 1046.64 | 1037.87 | 1028.99 | 1020.01 | 1010.92 | 1681.9 | 1645.8 | 1609.4 | 1573 | 1536.5
x1 = 0.8044 | 1043.96 | 1035.17 | 1026.32 | 1017.39 | 1008.38 | 1662.5 | 1626 | 1589.3 | 1552.7 | 1516.3
x1 = 0.9031 | 1041.64 | 1032.83 | 1023.98 | 1015.07 | 1006.1 | 1647.8 | 1610.9 | 1573.7 | 1536.9 | 1500.3
x1 = 0.9555 | 1040.49 | 1031.66 | 1022.8 | 1013.91 | 1004.96 | 1640.8 | 1603.8 | 1566.4 | 1529.3 | 1492.6
x1 = 1 | 1039.36 | 1030.52 | 1021.66 | 1012.76 | 1003.83 | 1634.1 | 1596.5 | 1559 | 1521.8 | 1485

Cn1ccnc1 [1-methylimidazole] + CO
Conditions | mass density, 288.15 K [kg/m3] | mass density, 298.15 K [kg/m3] | mass density, 308.15 K [kg/m3] | mass density, 318.15 K [kg/m3] | mass density, 328.15 K [kg/m3] | speed of sound, 288.15 K [m/s] | speed of sound, 298.15 K [m/s] | speed of sound, 308.15 K [m/s] | speed of sound, 318.15 K [m/s] | speed of sound, 328.15 K [m/s]
x1 = 0.0507 | 822.81 | 813.46 | 804.03 | 794.49 | 784.81 | 1185.2 | 1151.8 | 1118.6 | 1085.8 | 1053.3
x1 = 0.1009 | 846.62 | 837.31 | 827.92 | 818.41 | 808.78 | 1230.7 | 1196.9 | 1163.2 | 1130 | 1097.2
x1 = 0.1961 | 884.53 | 875.26 | 865.91 | 856.48 | 846.92 | 1305.4 | 1270.8 | 1236.4 | 1202.4 | 1168.7
x1 = 0.296 | 918.09 | 908.87 | 899.58 | 890.21 | 880.75 | 1374 | 1338.8 | 1303.7 | 1268.9 | 1234.5
x1 = 0.3988 | 946.5 | 937.33 | 928.11 | 918.82 | 909.45 | 1434.1 | 1398.4 | 1362.7 | 1327.4 | 1292.4
x1 = 0.5058 | 969.95 | 960.86 | 951.71 | 942.51 | 933.23 | 1484.7 | 1448.5 | 1412.4 | 1376.6 | 1341.1
x1 = 0.6096 | 989.14 | 980.11 | 971.04 | 961.92 | 952.74 | 1526.2 | 1489.6 | 1453 | 1416.8 | 1380.9
x1 = 0.7023 | 1003.69 | 994.72 | 985.72 | 976.66 | 967.55 | 1558 | 1521.2 | 1484.3 | 1447.8 | 1411.7
x1 = 0.8018 | 1017.21 | 1008.3 | 999.35 | 990.36 | 981.32 | 1587.5 | 1550.4 | 1513.3 | 1476.5 | 1440.5
x1 = 0.8994 | 1028.89 | 1020.02 | 1011.12 | 1002.18 | 993.19 | 1612.9 | 1575.6 | 1538.2 | 1501.2 | 1464.5
x1 = 0.951 | 1034.48 | 1025.61 | 1016.76 | 1007.87 | 998.91 | 1625 | 1587.6 | 1550.1 | 1513 | 1476.2
x1 = 1 | 1039.36 | 1030.52 | 1021.66 | 1012.76 | 1003.83 | 1634.1 | 1596.5 | 1559 | 1521.8 | 1485
